Laboratory results published in patent US7446095B2, “Peptides modulating caspase activation” (priority 2002, dated 2008).
“Also recorded” adds a separate entry of the source. Bridges are numbered along the chain shown (N, C = ends). Where no end group is shown, it is not given here.

B1: AFP: Human alpha-fetoprotein isolated from the cord serum, purity not less than 99.8% (protein, UniProt P02771 19-609, looked up)
Alpha-fetoprotein: RTLHRNEYGIASILDSYQCTAEISLADLATIFFAQFVQEATYKEVSKMVKDALTAIEKPTGDEQSSGCLENQLPAFLEELCHEKEILEKYGHSDCCSQSEEGRHNCFLAHKKPTPASIPLFQVPEPVTSCEAYEEDRETFMNKFIYEIARRHPFLYAPTILLWAARYDKIIPSCCKAENAVECFQTKAATVTKELRESSLLNQHACAVMKNFGTRTFQAITVTKLSQKFTKVNFTEIQKLVLDVAHVHEHCCRGDVLDCLQDGEKIMSYICSQQDTLSNKITECCKLTTLERGQCIIHAENDEKPEGLSPNLNRFLGDRDFNQFSSGEKNIFLASFVHEYSRRHPQLAVSVILRVAKGYQELLEKCFQTENPLECQDKGEEELQKYIQESQALAKRSCGLFQKLGEYYLQNAFLVAYTKKAPQLTSSELMAITRKMAATAATCCQLSEDKLLACGEGAADIIIGHLCIRHEMTPVNPGVGQCCTSSYANRRPCFSSLVVDETYVPPAFSDDKFIFHKDLCQAQGVALQTMKQEFLINLVKQKPQITEEQLEAVIADFSGLLEKCCQGQEQEVCFAEEGQKLISKTRAALGV

How the values were obtained:
[1] = system: U-937 cells; assay: Modulation of AFP-induced apoptosis / growth suppression in U-937 cells ([3H]-thymidine incorporation); type: cell-based, human; conditions: for Effect on AFP-induced apoptosis in whole cells (in words): 15 min peptide pre-treatment, then 3 μM AFP, 24 h
Method: Cell proliferation was assessed by [^3H]-thymidine incorporation assay after 24 h of incubation.
The cells were treated for […] with various doses of the peptides and thereafter 3 μM pure human AFP was added to each well. Cell proliferation was assessed by the [^3H]-thymidine incorporation assay after 24 h of incubation.
The cells were treated for 15 min with various doses of the peptide and thereafter 3 μM pure human AFP was added to each well. Cell proliferation was assessed by the [^3H]-thymidine incorporation assay after 24 h of incubation.
U937 cells were plated out at a density of 4×10^3 cells/well in flat-bottom 96-well plates (Costar) in the complete medium and incubated for 2 h before reagent additions. Then cells were treated for 24 h with various doses of AFP dissolved in PBS and then assessed for proliferation. Cell treatment with cytotoxic IgM anti-Fas antibody CH-11 was performed as described. U937 cells were treated with 50 ng/ml of CH-11 antibodies for 18 h. Cells were left untreated or were treated with reagents for adequate time intervals and for the last 4 h of culture were subjected to their [^3H]-thymidine (1 Ci/mmol/well) incorporation. Experimental data were expressed as a percentage of [^3H]-thymidine incorporation in triplicate cultures relative to the medium control. Cells, cultivated without additions, were taken as a control.
(§1) To assess growth regulative activity of peptides various doses of peptides were added to the cells for 24 h and then the cells were assessed for proliferation, cell viability and DNA-fragmentation. To determine ability of peptides to modulate apoptosis induced by other factors Jurkat cells were treated with 20 ng/ml of CH-11 antibodies without ActD, Raji cells were treated with CH-11 in the presence of 0.5 μg/ml of ActD for 18 h. For induction of apoptosis with TNF-α, cells (Jurkat, MCF7 or U937) were treated for 24 h with 25 ng/ml of the cytokine and then were assessed for proliferation or viability as described above. HepG2 cells were pre-washed before TNF addition with fresh medium to remove endogenous growth factors.

[2] = system: caspase-3 activation (DEVDase activity); assay: dATP-dependent Cyt c-induced caspase-3 (DEVDase) activation in cell-free cytosolic extracts of HepG2 cells; type: biochemical, human; conditions: for Effect on high dose cytochrome c-mediated caspase activation (in words) / Effect on low dose cytochrome c-induced caspase activation (in words): cell-free extracts, 15 min pre-treatment; for Effect on high dose cytochrome c-mediated caspase activation (in words) / Effect on low dose cytochrome c-induced caspase activation (in words) / Effect on the high dose Cyt c-induced caspase activation: peptides 750 μM; for Effect on high dose cytochrome c-mediated caspase activation (in words): high dose (165 nM) cytochrome c; for Effect on low dose cytochrome c-induced caspase activation (in words): low dose (110 nM) cytochrome c; for Effect on the low dose Cyt c-induced caspase activation (abrogation) / Effect on the high dose Cyt c-induced caspase activation / Effect on the low dose Cyt c-induced caspase activation (stimulation, or result in words): DEVDase activity; for Effect on the low dose Cyt c-induced caspase activation (abrogation) / Effect on the high dose Cyt c-induced caspase activation: numbers are % abrogation; for Effect on the low dose Cyt c-induced caspase activation (stimulation, or result in words): numbers are % stimulation
Method: Peptides in the concentration of 750 μM were added to the cell extracts 15 min before the cytochrome c addition. Caspase activation was monitored by the cleavage of caspase-3-specific fluorogenic substrate DEVD-AMC.
(§2) HepG2, human hepatocarcinoma cells and human monoblastoma cell line U937 originated from American Type Culture Collection. Cell extracts were prepared by lysing cells in a hypotonic extraction buffer. To obtain the cytosolic S-100 fraction, the cell lysate was centrifuged for 1 h at 100,000×g. Extracts were either used immediately or frozen at −70° C. for later use.
(§3) Cell-free reactions were typically set up in 13-μl reaction volumes. Apoptosis was induced by addition of various doses of bovine heart cytochrom c and/or purified human AFP in the presence of 1 mM dATP. For 13-μl scale reactions, 10 μl of cell extract (˜2-4 mg/ml, as determined by the Bradford assay) were supplemented with 1 μl of dATP, 1 μl of Cyt c and/or AFP solutions in reaction buffer to receive necessary final concentration of reagents. To assess activity of peptides, various doses of peptides being dissolved in the reaction buffer together with 1 mM dATP were added to the cell extracts. To determine ability of the peptides to modulate apoptotic effects of Cyt c and AFP, peptides were added to extracts 10 min before cytochrome c or AFP. Control samples were incubated with the equal volume of the buffer (3 μl) without reagent addition. To initiate apoptosis, extracts were incubated at 37° C. for 40 min.
(§4) At the end of a caspase activation reaction, extract aliquots (5 μl) were supplemented with fluorogenic substrate DEVD-AMC (3 mM) and then incubated for definite time intervals (0.5-1 h) at 37° C. Reactions were terminated by dilution with addition of 2.0 ml of ice-cold 0.2 mM sodium phosphate buffer, pH 7.5, followed by a measurement of fluorescence with a Perkin Elmer MPF-44A (λexc=365 nm and λem=440 nm ) fluorometer. For each sample, the fluorescence intensity was normalized in the respect of cytosolic protein concentration. Caspase activation was presented as the ratio between the normalized fluorescence intensity of the sample and the corresponding value measured with a control sample.
To test ability of various peptides to affect caspase activation induced by exogenous cytochrome c in cell free system, we used cytosolic cell extracts of HepG2 cells. Aliquots of cell extracts were pre-treated with 750 μM of peptides for 15 min and thereafter various doses of cytochrome c was introduced in the reaction mixture to induce caspase activation.

[3] = system: U-937 cells; assay: Direct effect of peptides on U-937 cell proliferation ([3H]-thymidine incorporation); type: cell-based, human; conditions: peptides in dose 1 mM; U-937 cell proliferation vs control without additions
Method: Cells, cultivated without additions, were taken as a control.
as §1

[4] = system: caspase-3 activation (DEVDase activity); assay: Cyt c/AFP-mediated caspase-3 activation in cell-free cytosolic extracts of HepG2 cells; type: biochemical, human; conditions: for Effect on Cyt c/AFP-mediated caspase-3 activation (in words): cell-free HepG2 cytosolic extracts, 1 mM dATP; for Ability to affect AFP-induced Cyt c-dependent caspase activation: DEVDase activity, numbers are % abrogation
Method: Caspase activation was monitored by the cleavage of specific caspase-3 fluorogenic substrate DEVD-AMC.
as §2, §3, §4

[5] = system: U-937 cells
[6] = system: caspase-3 activation (DEVDase activity); conditions: cell-free system, no dATP
Method: as §2
Cell-free reactions were typically set up in 13-μl reaction volumes. Apoptosis was induced by addition of various doses of bovine heart cytochrom c and/or purified human AFP in the presence of 1 mM dATP. For 13-μl scale reactions, 10 μl of cell extract (˜2-4 mg/ml, as determined by the Bradford assay) were supplemented with 1 μl of dATP, 1 μl of Cyt c and/or AFP solutions in reaction buffer to receive necessary final concentration of reagents. […]
as §4, with “Caspase activation was presented as the ratio between the normalized fluorescence intensity of the sample and the corresponding value measured with a control sample.” left out

[7] = system: caspase-3 activation (DEVDase activity); assay: dATP-dependent Cyt c-induced caspase-3 (DEVDase) activation in cell-free cytosolic extracts of HepG2 cells; type: biochemical, human

Molecule	Effect on AFP-induced apoptosis in whole cells (in words) [1]	Effect on high dose cytochrome c-mediated caspase activation (in words) [2]	Effect on low dose cytochrome c-induced caspase activation (in words) [2]	Effect on the high dose Cyt c-induced caspase activation ([2]; cell-free system)	Effect on the cell growth (% of control) [3]	Ability to affect AFP-induced Cyt c-dependent caspase activation ([4]; cell-free system)	Effect on the low dose Cyt c-induced caspase activation (stimulation, or result in words) ([2]; cell-free system)	also measured
RGDVLD [Linear 6-mer peptide from AFP]	did not revealed any apoptosis-regulating activity; also recorded: incapable of regulation	significant inhibition	significant abrogation	80% abrogation	+10 % of control	no effect		Effect on AFP-induced apoptosis in whole cells (in words) ([1]; listed as p25): not in the whole cells; Effect on the low dose Cyt c-induced caspase activation (abrogation) ([2]; cell-free system): 30-50%; Retention of apocyclin-A's modulation of Cyt c-mediated caspase activation in a cell-free system (in words) ([2]; summary statement): partially retained this activity; Effect on Cyt c/AFP-mediated caspase-3 activation (in words) [4]: able to abrogate
*Cys-Gly-His-Gly-Asp-Leu-Leu-Glu-Cys* (CGHGDLLEC; disulfide 1-9 (inferred)) [Cyclic peptide from HSA, Cys substituted for Gly]	did not affect							
*Cys-Gly-Arg-Gly-Asp-Val-Leu-Asp-Cys*	failed to abrogate; also recorded: no activity	no activity	no effect	no effect	−12 % of control	no effect	no effect	
HGDLLE [Linear peptide from HSA]	did not affect	significant inhibition	significant abrogation	90% abrogation	+20 % of control	no effect		Effect on the low dose Cyt c-induced caspase activation (abrogation) ([2]; cell-free system): 70% abrogation
*Cys-*Cys-Arg-Gly-Asp-Val-Leu-Asp-Cys* [apocyclin-A]	completely abrogates; also recorded: completely cancelled	decreased; also recorded: significantly inhibited; also recorded: practically completely abrogated; also recorded: significant inhibition	significantly enhanced; also recorded: moderately supported; also recorded: notably enhanced; also recorded: same stimulation as full-length AFP molecule	50-80%	+12 % of control	70-80%	30% stimulation	Stimulation of proliferation relatively to the medium control ([1]; 15-min pre-treatment with 1 mM, 24-h cultivation): 15%; Abrogation of the total anti-Fas-mediated apoptosis effect ([5]; 0.5 mM peptide, U-937 cells, various doses of CH-11): about 50%; Inhibition of anti-Fas-induced apoptosis (in words) ([5]; peptide concentration up to 1 mM, U-937 cells): more significant inhibition; Inhibition of anti-Fas-mediated cell death (in words) ([5]; summary statement, concentration not given): significantly inhibits; Inhibition of caspase activation induced by high doses of endogenous cytochrome c ([2]; peptide 750 μM, cell-free system): 50-70%; Effect on Cyt c/AFP-mediated caspase-3 activation (in words) [4]: abrogates; also recorded: cancelled; Inhibition of Cyt c/AFP-mediated caspase activation ([4]; cell-free system, combined cytochrome c/AFP treatment): 60-80%; Induction of DEVD-ase activity without dATP addition (in words) [6]: unable to induce
*Cys-Cys-His-Gly-Asp-Leu-Leu-Glu-Cys* (CCHGDLLEC; disulfide 1-9) [Cyclic peptide from human serum albumin]	no activity	no activity	no effect	no effect	+18 % of control	no effect	no effect	
B1				80% abrogation			50% stimulation	Caspase activation in 'silent' cytosolic extracts with low suboptimal dose of exogenous cyt-c and dATP (in words) ([7]; AFP 7 μM, time-dependent, up to two hours): triggered the process of caspase activation; Caspase activation in the absence of dATP (in words) ([7]; S100 cytosolic extract, no dATP): did not induce any caspase activation; Induction of caspase-3-specific DEVDase activity in S100 cytosolic extract (in words) ([7]; protein 7 μM with dATP 1 mM, no exogenous cyt-c, up to 2 h): triggered dATP-dependent induction
